Values joined by “and” are separate entries in the source; they are usually repeats but may differ in a detail not shown here. Equal values may be shown once. Numbers after ± are expanded uncertainties.
Experiments:
[1] = 101 kPa, Liquid; for viscosity: Falling or rolling sphere viscometry; for mass density: Vibrating tube method
[2] = xn = mol fraction of the nth substance listed; conditions: 101 kPa, Liquid, x2 = 0; for viscosity: Falling or rolling sphere viscometry; for mass density: Vibrating tube method

CC(C)CO [2-methyl-1-propanol]
[1]
Conditions	mass density [kg/m3]	viscosity [mPa·s]
288.15 K	805.88 ± 0.19	4.829 ± 0.1
293.15 K	802.03 ± 0.19	4.052 ± 0.086
298.15 K	798.16 ± 0.2	3.431 ± 0.073
303.15 K	794.25 ± 0.2	2.923 ± 0.062
308.15 K	790.31 ± 0.2	2.505 ± 0.053
313.15 K	786.31 ± 0.2	2.161 ± 0.046
318.15 K	782.26 ± 0.2	1.876 ± 0.04
323.15 K	778.14 ± 0.2	1.652 ± 0.035

CC(C)CO [2-methyl-1-propanol] + CCCC(=O)OCC
[2]
Conditions	mass density [kg/m3]	viscosity [mPa·s]
288.15 K	805.88 ± 0.19	4.829 ± 0.1
293.15 K	802.03 ± 0.19	4.052 ± 0.086
298.15 K	798.16 ± 0.2	3.431 ± 0.073
303.15 K	794.25 ± 0.2	2.923 ± 0.062
308.15 K	790.31 ± 0.2	2.505 ± 0.053
313.15 K	786.31 ± 0.2	2.161 ± 0.046
318.15 K	782.26 ± 0.2	1.876 ± 0.04
323.15 K	778.14 ± 0.2	1.652 ± 0.035

CC(C)CCO [3-methylbutan-1-ol]
[1]
Conditions	mass density [kg/m3]	viscosity [mPa·s]
288.15 K	812.29 ± 0.27	5.057 ± 0.11
293.15 K	808.58 ± 0.27	4.288 ± 0.094
298.15 K	804.84 ± 0.27	3.671 ± 0.08
303.15 K	801.09 ± 0.27	3.155 ± 0.069
308.15 K	797.31 ± 0.27	2.73 ± 0.06
313.15 K	793.51 ± 0.27	2.375 ± 0.052
318.15 K	789.67 ± 0.27	2.076 ± 0.045
323.15 K	785.79 ± 0.27	1.841 ± 0.04

CC(C)CCO [3-methylbutan-1-ol] + CCCC(=O)OCC
[2]
Conditions	mass density [kg/m3]	viscosity [mPa·s]
288.15 K	812.29 ± 0.27	5.057 ± 0.11
293.15 K	808.58 ± 0.27	4.288 ± 0.094
298.15 K	804.84 ± 0.27	3.671 ± 0.08
303.15 K	801.09 ± 0.27	3.155 ± 0.069
308.15 K	797.31 ± 0.27	2.73 ± 0.06
313.15 K	793.51 ± 0.27	2.375 ± 0.052
318.15 K	789.67 ± 0.27	2.076 ± 0.045
323.15 K	785.79 ± 0.27	1.841 ± 0.04

CCCCO [butan-1-ol]
[1]
Conditions	mass density [kg/m3]	viscosity [mPa·s]
288.15 K	813.46 ± 0.2	3.365 ± 0.072
293.15 K	809.66 ± 0.2	2.913 ± 0.062
298.15 K	805.84 ± 0.2	2.563 ± 0.055
303.15 K	801.99 ± 0.21	2.257 ± 0.048
308.15 K	798.12 ± 0.21	1.994 ± 0.043
313.15 K	794.22 ± 0.21	1.779 ± 0.038
318.15 K	790.28 ± 0.21	1.576 ± 0.034
323.15 K	786.29 ± 0.21	1.422 ± 0.03

CCCCO [butan-1-ol] + CCCC(=O)OCC
[2]
Conditions	mass density [kg/m3]	viscosity [mPa·s]
288.15 K	813.46 ± 0.2	3.365 ± 0.072
293.15 K	809.66 ± 0.2	2.913 ± 0.062
298.15 K	805.84 ± 0.2	2.563 ± 0.055
303.15 K	801.99 ± 0.21	2.257 ± 0.048
308.15 K	798.12 ± 0.21	1.994 ± 0.043
313.15 K	794.22 ± 0.21	1.779 ± 0.038
318.15 K	790.28 ± 0.21	1.576 ± 0.034
323.15 K	786.29 ± 0.21	1.422 ± 0.03

CCCC(=O)OCC [ethyl butanoate]
[1]
Conditions	mass density [kg/m3]	viscosity
288.15 K	884.16 ± 0.27	0.7224 ± 0.016 mPa·s
293.15 K	878.9 ± 0.27	0.6808 ± 0.015 mPa·s
298.15 K	873.62 ± 0.27	0.643 ± 0.014 mPa·s
303.15 K	868.33 ± 0.27	0.6072 ± 0.013 mPa·s
308.15 K	863.02 ± 0.27	0.5736 ± 0.013 mPa·s
313.15 K	857.7 ± 0.27	0.5424 ± 0.012 mPa·s and 0.5425 ± 0.012 mPa·s
318.15 K	852.36 ± 0.27	0.5132 ± 0.011 mPa·s
323.15 K	847 ± 0.27	0.487 ± 0.011 mPa·s

CCCCCCO [hexan-1-ol]
[1]
Conditions	mass density [kg/m3]	viscosity [mPa·s]
288.15 K	822.26 ± 0.27	6.308 ± 0.14
293.15 K	818.7 ± 0.27	5.332 ± 0.12
298.15 K	815.12 ± 0.27	4.538 ± 0.099
303.15 K	811.52 ± 0.27	3.896 ± 0.085
308.15 K	807.89 ± 0.27	3.361 ± 0.073
313.15 K	804.25 ± 0.27	2.917 ± 0.064
318.15 K	800.56 ± 0.27	2.546 ± 0.056
323.15 K	796.85 ± 0.27	2.241 ± 0.049

CCCCCCO [hexan-1-ol] + CCCC(=O)OCC
[2]
Conditions	mass density [kg/m3]	viscosity [mPa·s]
288.15 K	822.26 ± 0.27	6.308 ± 0.14
293.15 K	818.7 ± 0.27	5.332 ± 0.12
298.15 K	815.12 ± 0.27	4.538 ± 0.099
303.15 K	811.52 ± 0.27	3.896 ± 0.085
308.15 K	807.89 ± 0.27	3.361 ± 0.073
313.15 K	804.25 ± 0.27	2.917 ± 0.064
318.15 K	800.56 ± 0.27	2.546 ± 0.056
323.15 K	796.85 ± 0.27	2.241 ± 0.049

CCCO [propan-1-ol]
[1]
Conditions	mass density [kg/m3]	viscosity [mPa·s]
288.15 K	807.75 ± 0.2	2.514 ± 0.054
293.15 K	803.77 ± 0.21	2.208 ± 0.047
298.15 K	799.76 ± 0.21	1.95 ± 0.042
303.15 K	795.72 ± 0.21	1.727 ± 0.037
308.15 K	791.64 ± 0.21	1.542 ± 0.033
313.15 K	787.52 ± 0.21	1.378 ± 0.029
318.15 K	783.36 ± 0.21	1.236 ± 0.026
323.15 K	779.14 ± 0.21	1.124 ± 0.024

CCCO [propan-1-ol] + CCCC(=O)OCC
[2]
Conditions	mass density [kg/m3]	viscosity [mPa·s]
288.15 K	807.75 ± 0.2	2.514 ± 0.054
293.15 K	803.77 ± 0.21	2.208 ± 0.047
298.15 K	799.76 ± 0.21	1.95 ± 0.042
303.15 K	795.72 ± 0.21	1.727 ± 0.037
308.15 K	791.64 ± 0.21	1.542 ± 0.033
313.15 K	787.52 ± 0.21	1.378 ± 0.029
318.15 K	783.36 ± 0.21	1.236 ± 0.026
323.15 K	779.14 ± 0.21	1.124 ± 0.024
